Results on 25 substances are retold here after the OligoGym collection.

HELM strings list units from the 5' end as sugar, base in round brackets, then linkage (d deoxyribose, r ribose, m 2'-O-methyl, p phosphodiester). Strings are as the collection lists them; they lack the last nucleoside at the 3' end of the tested compound. [moe] = 2'-O-(2-methoxyethyl) (MOE); [sp] = phosphorothioate linkage; [m5C] = 5-methylcytosine

This series addresses PRNP. The series can be described thus: mouse, dose not given. Particulars: ASO.
In the case of “RNA1{[moe](A)[sp].[moe](A)p.[moe](A)p.[moe]([m5C])p.[moe](G)[sp].d(T)[sp].d([m5C])[sp].d([m5C])[sp].d(A)[sp].d(T)[sp].d(T)[sp].d(T)[sp].d(T)[sp].d([m5C])[sp].d(T)[sp].[moe](G)p.[moe](T)p.[moe](G)[sp].[moe]([m5C])}$$$$ (last 3' nucleoside missing)”, the 3 h FOB score was 0 score 0-7.

With “RNA1{[moe](A)[sp].[moe](A)p.[moe](G)p.[moe](G)p.[moe](T)[sp].d(T)[sp].d([m5C])[sp].d(G)[sp].d([m5C])[sp].d([m5C])[sp].d(A)[sp].d(T)[sp].d(A)[sp].d(A)[sp].d(T)[sp].[moe](G)p.[moe](A)p.[moe]([m5C])[sp].[moe](T)}$$$$ (last 3' nucleoside missing)”, the 3 h FOB score came to 5.25 score 0-7.

For the substance “RNA1{[moe](A)[sp].[moe](A)p.[moe](G)p.[moe]([m5C])p.[moe]([m5C])[sp].d(T)[sp].d(T)[sp].d(T)[sp].d([m5C])[sp].d(A)[sp].d(T)[sp].d(A)[sp].d(T)[sp].d(A)[sp].d(T)[sp].[moe](G)p.[moe](T)p.[moe](T)[sp].[moe](A)}$$$$ (last 3' nucleoside missing)”, the 3 h FOB score is 0 score 0-7.

Consider “RNA1{[moe](A)[sp].[moe](A)p.[moe](T)p.[moe](G)p.[moe](A)[sp].d([m5C])[sp].d(T)[sp].d([m5C])[sp].d(A)[sp].d(T)[sp].d([m5C])[sp].d(A)[sp].d(T)[sp].d(T)[sp].d(T)[sp].[moe](T)p.[moe](G)p.[moe]([m5C])[sp].[moe]([m5C])}$$$$ (last 3' nucleoside missing)”, for which the 3 h FOB score is 0 score 0-7.

“RNA1{[moe](A)[sp].[moe](A)p.[moe](T)p.[moe](T)p.[moe](T)[sp].d([m5C])[sp].d(T)[sp].d(T)[sp].d(T)[sp].d(T)[sp].d(T)[sp].d([m5C])[sp].d([m5C])[sp].d(A)[sp].d([m5C])[sp].[moe](T)p.[moe](T)p.[moe]([m5C])[sp].[moe](A)}$$$$ (last 3' nucleoside missing)” came in with a 3 h FOB score of 0 score 0-7.

Substance “RNA1{[moe](A)[sp].[moe](A)p.[moe](T)p.[moe]([m5C])p.[moe](A)[sp].d(T)[sp].d(A)[sp].d(T)[sp].d(T)[sp].d(T)[sp].d([m5C])[sp].d(T)[sp].d(G)[sp].d(T)[sp].d([m5C])[sp].[moe](A)p.[moe](T)p.[moe]([m5C])[sp].[moe](T)}$$$$ (last 3' nucleoside missing)” showed a 3 h FOB score of 5 score 0-7.

The substance “RNA1{[moe](A)[sp].[moe](A)p.[moe](T)p.[moe]([m5C])p.[moe](A)[sp].d(T)[sp].d(T)[sp].d([m5C])[sp].d(T)[sp].d(G)[sp].d(G)[sp].d(T)[sp].d(T)[sp].d(T)[sp].d([m5C])[sp].[moe]([m5C])p.[moe](A)p.[moe](G)[sp].[moe](G)}$$$$ (last 3' nucleoside missing)” registered a 3 h FOB score of 0.5 score 0-7.

The substance “RNA1{[moe](A)[sp].[moe](A)p.[moe]([m5C])p.[moe](A)p.[moe](T)[sp].d(T)[sp].d(T)[sp].d(G)[sp].d(A)[sp].d(T)[sp].d(T)[sp].d(T)[sp].d([m5C])[sp].d(A)[sp].d(A)[sp].[moe](G)p.[moe](T)p.[moe]([m5C])[sp].[moe]([m5C])}$$$$ (last 3' nucleoside missing)” gave a 3 h FOB score of 2.5 score 0-7.

As for “RNA1{[moe](A)[sp].[moe](A)p.[moe]([m5C])p.[moe](G)p.[moe](T)[sp].d([m5C])[sp].d([m5C])[sp].d(A)[sp].d(T)[sp].d(T)[sp].d(T)[sp].d(T)[sp].d([m5C])[sp].d(T)[sp].d(G)[sp].[moe](T)p.[moe](G)p.[moe]([m5C])[sp].[moe](T)}$$$$ (last 3' nucleoside missing)”, the 3 h FOB score worked out at 0 score 0-7.

In turn, “RNA1{[moe](A)[sp].[moe](G)p.[moe](A)p.[moe](G)p.[moe]([m5C])[sp].d(A)[sp].d(A)[sp].d(T)[sp].d(A)[sp].d(T)[sp].d(A)[sp].d(T)[sp].d(T)[sp].d([m5C])[sp].d(A)[sp].[moe]([m5C])p.[moe]([m5C])p.[moe](A)[sp].[moe](A)}$$$$ (last 3' nucleoside missing)” registered a 3 h FOB score of 0 score 0-7.

On to “RNA1{[moe](A)[sp].[moe](G)p.[moe](G)p.[moe](G)p.[moe]([m5C])[sp].d(A)[sp].d(T)[sp].d(T)[sp].d(A)[sp].d(G)[sp].d(T)[sp].d(A)[sp].d(T)[sp].d(A)[sp].d([m5C])[sp].[moe](T)p.[moe](G)p.[moe](A)[sp].[moe](G)}$$$$ (last 3' nucleoside missing)”, for which the 3 h FOB score stood at 2.75 score 0-7.

“RNA1{[moe](A)[sp].[moe](G)p.[moe](T)p.[moe](A)p.[moe](T)[sp].d([m5C])[sp].d(A)[sp].d(T)[sp].d(G)[sp].d(T)[sp].d(G)[sp].d(G)[sp].d([m5C])[sp].d([m5C])[sp].d(T)[sp].[moe]([m5C])p.[moe]([m5C])p.[moe](T)[sp].[moe](A)}$$$$ (last 3' nucleoside missing)” displayed a 3 h FOB score of 5.75 score 0-7.

In the case of “RNA1{[moe](A)[sp].[moe](G)p.[moe](T)p.[moe](T)p.[moe]([m5C])[sp].d(T)[sp].d(T)[sp].d(T)[sp].d(T)[sp].d([m5C])[sp].d(T)[sp].d(T)[sp].d(T)[sp].d(G)[sp].d([m5C])[sp].[moe](A)p.[moe]([m5C])p.[moe](A)[sp].[moe]([m5C])}$$$$ (last 3' nucleoside missing)”, the 3 h FOB score turned out to be 5.25 score 0-7.

Turning to “RNA1{[moe](A)[sp].[moe](G)p.[moe]([m5C])p.[moe](A)p.[moe]([m5C])[sp].d(A)[sp].d(G)[sp].d(G)[sp].d([m5C])[sp].d(T)[sp].d(A)[sp].d(T)[sp].d([m5C])[sp].d(T)[sp].d(T)[sp].[moe](T)p.[moe]([m5C])p.[moe](T)[sp].[moe](A)}$$$$ (last 3' nucleoside missing)”, the 3 h FOB score amounted to 5 score 0-7.

“RNA1{[moe](A)[sp].[moe](G)p.[moe]([m5C])p.[moe](T)p.[moe]([m5C])[sp].d(T)[sp].d(A)[sp].d(T)[sp].d(T)[sp].d(A)[sp].d(A)[sp].d(T)[sp].d(A)[sp].d(G)[sp].d(G)[sp].[moe](T)p.[moe](T)p.[moe](A)[sp].[moe](G)}$$$$ (last 3' nucleoside missing)” displayed a 3 h FOB score of 5.5 score 0-7.

“RNA1{[moe](A)[sp].[moe](G)p.[moe]([m5C])p.[moe](T)p.[moe]([m5C])[sp].d(T)[sp].d([m5C])[sp].d([m5C])[sp].d(T)[sp].d(G)[sp].d(T)[sp].d(A)[sp].d(T)[sp].d(G)[sp].d(T)[sp].[moe]([m5C])p.[moe](A)p.[moe](A)[sp].[moe](A)}$$$$ (last 3' nucleoside missing)” returned a 3 h FOB score of 4.75 score 0-7.

In turn, “RNA1{[moe](A)[sp].[moe](T)p.[moe](G)p.[moe](G)p.[moe](T)[sp].d(G)[sp].d([m5C])[sp].d(T)[sp].d(T)[sp].d(T)[sp].d([m5C])[sp].d(A)[sp].d([m5C])[sp].d(A)[sp].d(A)[sp].[moe]([m5C])p.[moe](T)p.[moe](G)[sp].[moe]([m5C])}$$$$ (last 3' nucleoside missing)” displayed a 3 h FOB score of 1 score 0-7.

Substance “RNA1{[moe](A)[sp].[moe](T)p.[moe](G)p.[moe](G)p.[moe]([m5C])[sp].d(A)[sp].d([m5C])[sp].d(T)[sp].d(T)[sp].d(T)[sp].d([m5C])[sp].d(T)[sp].d(T)[sp].d(T)[sp].d(T)[sp].[moe](T)p.[moe](A)p.[moe](T)[sp].[moe](T)}$$$$ (last 3' nucleoside missing)” yielded a 3 h FOB score of 1 score 0-7.

“RNA1{[moe](A)[sp].[moe](T)p.[moe](G)p.[moe](T)p.[moe](T)[sp].d(A)[sp].d([m5C])[sp].d(A)[sp].d(G)[sp].d(T)[sp].d(T)[sp].d(A)[sp].d(T)[sp].d(G)[sp].d(T)[sp].[moe](T)p.[moe]([m5C])p.[moe](A)[sp].[moe]([m5C])}$$$$ (last 3' nucleoside missing)” returned a 3 h FOB score of 2.5 score 0-7.

The substance “RNA1{[moe](A)[sp].[moe](T)p.[moe](G)p.[moe](T)p.[moe](T)[sp].d(T)[sp].d(T)[sp].d([m5C])[sp].d([m5C])[sp].d(A)[sp].d(G)[sp].d(T)[sp].d(G)[sp].d([m5C])[sp].d([m5C])[sp].[moe]([m5C])p.[moe](A)p.[moe](T)[sp].[moe]([m5C])}$$$$ (last 3' nucleoside missing)” showed a 3 h FOB score of 5.75 score 0-7.

Consider “RNA1{[moe](A)[sp].[moe](T)p.[moe](G)p.[moe]([m5C])p.[moe]([m5C])[sp].d(A)[sp].d([m5C])[sp].d(A)[sp].d(T)[sp].d(A)[sp].d(T)[sp].d(A)[sp].d(G)[sp].d(G)[sp].d(G)[sp].[moe](T)p.[moe]([m5C])p.[moe]([m5C])[sp].[moe](T)}$$$$ (last 3' nucleoside missing)”, for which the 3 h FOB score came out at 3 score 0-7.

Consider “RNA1{[moe](A)[sp].[moe](T)p.[moe](T)p.[moe](T)p.[moe](A)[sp].d(G)[sp].d(G)[sp].d([m5C])[sp].d(T)[sp].d([m5C])[sp].d(T)[sp].d(T)[sp].d(T)[sp].d(T)[sp].d([m5C])[sp].[moe]([m5C])p.[moe](A)p.[moe](G)[sp].[moe](G)}$$$$ (last 3' nucleoside missing)”, for which the 3 h FOB score stood at 4.75 score 0-7.

“RNA1{[moe](A)[sp].[moe](T)p.[moe](T)p.[moe](T)p.[moe](A)[sp].d([m5C])[sp].d(T)[sp].d(T)[sp].d(T)[sp].d(T)[sp].d([m5C])[sp].d(A)[sp].d(G)[sp].d([m5C])[sp].d(T)[sp].[moe](G)p.[moe]([m5C])p.[moe]([m5C])[sp].[moe](T)}$$$$ (last 3' nucleoside missing)” returned a 3 h FOB score of 3 score 0-7.

As for “RNA1{[moe](A)[sp].[moe](T)p.[moe](T)p.[moe](T)p.[moe](A)[sp].d([m5C])[sp].d(T)[sp].d([m5C])[sp].d(T)[sp].d(T)[sp].d(G)[sp].d(T)[sp].d(T)[sp].d(G)[sp].d(A)[sp].[moe](A)p.[moe]([m5C])p.[moe](A)[sp].[moe](G)}$$$$ (last 3' nucleoside missing)”, the 3 h FOB score came out at 3.75 score 0-7.

As for “RNA1{[moe](A)[sp].[moe](T)p.[moe](T)p.[moe](T)p.[moe](G)[sp].d(A)[sp].d(T)[sp].d(T)[sp].d(T)[sp].d([m5C])[sp].d(A)[sp].d(A)[sp].d(G)[sp].d(T)[sp].d([m5C])[sp].[moe]([m5C])p.[moe]([m5C])p.[moe](A)[sp].[moe](G)}$$$$ (last 3' nucleoside missing)”, the 3 h FOB score turned out to be 5.75 score 0-7.
